Reference: ChEMBL document CHEMBL1156029, “The discovery of thienopyridine analogues as potent IkappaB kinase beta inhibitors. Part II” (Bioorg Med Chem Lett, 2009)
Calls of active or inactive are those of the source. The calls are words filed in the database; no cut-off is given here.

Columns and labels:
[1] = target: Cyclin-dependent kinase 2/cyclin A (Homo sapiens) (UniProt P24941+P20248+P78396); test: Inhibition of CDK2/cyclin A at 10 uM; assay type: protein-complex assay
[2] = Inhibition of PKA at 10 uM
[3] = target: Ribosomal protein S6 kinase beta-1 (Homo sapiens) (UniProt P23443); test: Inhibition of S6K1 at 10 uM
[4] = Plasma concentration in mouse at 100 mg/kg, po after 120 mins; assay type: ADME, organism-based; parameters: dose 100 mg/kg, route oral
[5] = target: Dual specificity tyrosine-phosphorylation-regulated kinase 1A (Homo sapiens) (UniProt Q13627); test: Inhibition of DYRK1a at 10 uM
[6] = target: Ephrin type-A receptor 2 (Homo sapiens, UniProt P29317); test: Inhibition of Eck
[7] = target: T1, Serine/threonine-protein kinase Chk1 (Homo sapiens) (UniProt O14757); test: Inhibition of CHK1 at 10 uM
T1 sequence (whole entry): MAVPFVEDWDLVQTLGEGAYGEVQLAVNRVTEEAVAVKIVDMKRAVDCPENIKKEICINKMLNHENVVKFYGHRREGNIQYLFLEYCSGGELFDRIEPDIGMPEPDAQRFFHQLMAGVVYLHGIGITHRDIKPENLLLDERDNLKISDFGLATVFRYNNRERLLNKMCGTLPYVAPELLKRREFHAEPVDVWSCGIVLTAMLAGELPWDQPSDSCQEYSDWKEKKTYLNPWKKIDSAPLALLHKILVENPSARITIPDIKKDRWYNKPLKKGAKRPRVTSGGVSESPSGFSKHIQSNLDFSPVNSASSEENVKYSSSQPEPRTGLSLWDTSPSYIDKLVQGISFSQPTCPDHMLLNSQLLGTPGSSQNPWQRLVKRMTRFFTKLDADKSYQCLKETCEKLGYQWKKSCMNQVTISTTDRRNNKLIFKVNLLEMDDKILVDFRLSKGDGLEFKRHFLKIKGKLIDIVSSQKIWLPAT

[8] = system: Mus musculus; test: Inhibition of LPS-induced TNFalpha production in mouse at 30 mg/kg, po administered 60 mins before LPS challenge; assay type: functional
[9] = target: Tyrosine-protein kinase BTK (Homo sapiens, UniProt Q06187); test: Inhibition of Btk
[10] = system: Mus musculus; test: Inhibition of LPS-induced TNFalpha production in mouse at 10 mg/kg, po administered 60 mins before LPS challenge; assay type: functional
[11] = target: Fibroblast growth factor receptor 3 (Homo sapiens, UniProt P22607); test: Inhibition of FGFR3
[12] = target: T2, MAP kinase-activated protein kinase 5 (Homo sapiens) (UniProt Q8IW41); test: Inhibition of PRAK at 10 uM
T2 sequence (whole entry): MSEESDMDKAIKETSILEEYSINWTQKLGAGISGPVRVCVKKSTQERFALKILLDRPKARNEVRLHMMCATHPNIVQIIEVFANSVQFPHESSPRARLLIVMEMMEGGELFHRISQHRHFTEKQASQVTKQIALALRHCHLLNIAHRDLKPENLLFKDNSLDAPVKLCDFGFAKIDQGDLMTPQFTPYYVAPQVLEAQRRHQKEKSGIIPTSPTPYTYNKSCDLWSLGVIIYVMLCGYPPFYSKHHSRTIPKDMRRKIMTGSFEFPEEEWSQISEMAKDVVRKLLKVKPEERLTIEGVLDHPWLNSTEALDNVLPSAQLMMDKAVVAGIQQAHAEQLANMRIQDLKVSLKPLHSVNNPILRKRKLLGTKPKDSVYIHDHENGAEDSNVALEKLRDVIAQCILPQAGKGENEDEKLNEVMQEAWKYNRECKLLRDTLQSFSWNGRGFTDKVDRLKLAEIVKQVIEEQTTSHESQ

[13] = Inhibition of PH domain deficient PKBdelta at 10 uM
[14] = target: T3, Serine/threonine-protein kinase Sgk1 (Homo sapiens) (UniProt O00141); test: Inhibition of SGK at 10 uM
T3 sequence (whole entry): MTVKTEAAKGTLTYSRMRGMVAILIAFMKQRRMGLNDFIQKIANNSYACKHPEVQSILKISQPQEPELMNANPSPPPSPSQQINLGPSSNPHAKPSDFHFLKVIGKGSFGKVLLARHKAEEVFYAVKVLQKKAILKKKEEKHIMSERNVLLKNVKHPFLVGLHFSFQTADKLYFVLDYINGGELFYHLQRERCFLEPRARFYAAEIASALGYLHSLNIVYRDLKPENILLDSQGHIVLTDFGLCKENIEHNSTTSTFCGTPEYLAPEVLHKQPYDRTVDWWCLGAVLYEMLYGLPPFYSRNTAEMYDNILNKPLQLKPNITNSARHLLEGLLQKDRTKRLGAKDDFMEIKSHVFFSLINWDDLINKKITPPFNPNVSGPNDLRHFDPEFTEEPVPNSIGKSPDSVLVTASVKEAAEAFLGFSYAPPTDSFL

[15] = target: Rho-associated protein kinase 2 (Homo sapiens) (UniProt O75116); test: Inhibition of ROCK-2 at 10 uM
[16] = target: Protein kinase C alpha type (Homo sapiens) (UniProt P17252); test: Inhibition of PKCalpha at 10 uM
[17] = target: Tyrosine-protein kinase Lyn (Homo sapiens, UniProt P07948); test: Inhibition of Lyn
[18] = system: HeLa; test: Inhibition of TNF-alpha-induced NF-kappaB transfected in human HeLa cells preincubated for 30 mins before TNFalpha challenge after 6 hrs by luciferase reporter gene assay; assay type: cell-based
[19] = Inhibition of JNK/SAPK1c at 10 uM
[20] = Inhibition of PP2a at 10 uM
[21] = system: Mus musculus; test: Inhibition of LPS-induced TNFalpha production in mouse at 100 mg/kg, po administered 60 mins before LPS challenge; assay type: functional
[22] = target: Tyrosine-protein kinase Lck (Homo sapiens) (UniProt P06239); test: Inhibition of Lck at 10 uM
[23] = Plasma concentration in mouse at 30 mg/kg, po after 120 mins; assay type: ADME, organism-based; parameters: dose 30 mg/kg, route oral
[24] = system: Blood; test: Inhibition of LPS-induced TNFalpha production in human whole blood; assay type: functional, tissue-based
[25] = Inhibition of AMPK at 10 uM
[26] = target: MAP kinase-activated protein kinase 2 (Homo sapiens) (UniProt P49137); test: Inhibition of MAPKAP-K2 at 10 uM
[27] = Inhibition of PHOS Kinase at 10 uM
[28] = target: Casein kinase I isoform alpha (Homo sapiens) (UniProt P48729); test: Inhibition of CK1 at 10 uM
[29] = target: Mitogen-activated protein kinase 11 (Homo sapiens) (UniProt Q15759); test: Inhibition of p38beta2 at 10 uM
[30] = Plasma concentration in mouse at 10 mg/kg, po after 120 mins; assay type: ADME, organism-based; parameters: dose 10 mg/kg, route oral
[31] = target: High affinity nerve growth factor receptor (Homo sapiens, UniProt P04629); test: Inhibition of TrkA
[32] = target: Hepatocyte growth factor receptor (Homo sapiens, UniProt P08581); test: Inhibition of HGFR

High affinity nerve growth factor receptor, sequence (P04629 whole entry): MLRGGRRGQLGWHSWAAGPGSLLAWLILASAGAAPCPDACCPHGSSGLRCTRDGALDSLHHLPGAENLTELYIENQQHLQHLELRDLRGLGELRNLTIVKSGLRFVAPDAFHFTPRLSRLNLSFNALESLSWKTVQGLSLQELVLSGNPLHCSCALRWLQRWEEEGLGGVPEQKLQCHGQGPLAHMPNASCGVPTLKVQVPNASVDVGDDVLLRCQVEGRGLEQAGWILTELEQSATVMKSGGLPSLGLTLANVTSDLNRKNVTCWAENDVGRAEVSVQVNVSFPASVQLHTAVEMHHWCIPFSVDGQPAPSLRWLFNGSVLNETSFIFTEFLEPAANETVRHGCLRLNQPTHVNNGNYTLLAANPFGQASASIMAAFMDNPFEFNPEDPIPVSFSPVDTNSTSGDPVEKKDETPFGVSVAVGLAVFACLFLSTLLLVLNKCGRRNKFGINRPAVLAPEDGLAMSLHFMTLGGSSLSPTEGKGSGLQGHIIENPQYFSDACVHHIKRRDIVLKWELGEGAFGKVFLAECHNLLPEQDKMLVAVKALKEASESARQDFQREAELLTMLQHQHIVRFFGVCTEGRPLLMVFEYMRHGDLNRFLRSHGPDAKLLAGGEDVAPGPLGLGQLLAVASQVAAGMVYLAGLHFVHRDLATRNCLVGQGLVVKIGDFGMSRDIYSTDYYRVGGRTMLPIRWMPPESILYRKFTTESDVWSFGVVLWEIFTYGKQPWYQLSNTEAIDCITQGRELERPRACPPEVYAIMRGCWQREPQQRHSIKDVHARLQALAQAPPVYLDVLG
Mitogen-activated protein kinase 11 (Homo sapiens), sequence (Q15759 whole entry): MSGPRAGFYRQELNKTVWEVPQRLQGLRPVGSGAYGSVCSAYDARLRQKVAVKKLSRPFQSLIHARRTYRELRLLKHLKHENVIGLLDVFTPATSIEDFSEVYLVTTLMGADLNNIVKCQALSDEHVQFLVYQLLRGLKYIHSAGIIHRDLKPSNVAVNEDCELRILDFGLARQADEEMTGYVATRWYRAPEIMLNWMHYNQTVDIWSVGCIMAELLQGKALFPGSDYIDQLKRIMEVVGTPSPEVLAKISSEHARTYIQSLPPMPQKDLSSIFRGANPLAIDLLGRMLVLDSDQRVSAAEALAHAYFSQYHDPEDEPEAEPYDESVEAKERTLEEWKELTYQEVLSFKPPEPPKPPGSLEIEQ
Tyrosine-protein kinase Lck (Homo sapiens), sequence (P06239 2-509 limits assumed): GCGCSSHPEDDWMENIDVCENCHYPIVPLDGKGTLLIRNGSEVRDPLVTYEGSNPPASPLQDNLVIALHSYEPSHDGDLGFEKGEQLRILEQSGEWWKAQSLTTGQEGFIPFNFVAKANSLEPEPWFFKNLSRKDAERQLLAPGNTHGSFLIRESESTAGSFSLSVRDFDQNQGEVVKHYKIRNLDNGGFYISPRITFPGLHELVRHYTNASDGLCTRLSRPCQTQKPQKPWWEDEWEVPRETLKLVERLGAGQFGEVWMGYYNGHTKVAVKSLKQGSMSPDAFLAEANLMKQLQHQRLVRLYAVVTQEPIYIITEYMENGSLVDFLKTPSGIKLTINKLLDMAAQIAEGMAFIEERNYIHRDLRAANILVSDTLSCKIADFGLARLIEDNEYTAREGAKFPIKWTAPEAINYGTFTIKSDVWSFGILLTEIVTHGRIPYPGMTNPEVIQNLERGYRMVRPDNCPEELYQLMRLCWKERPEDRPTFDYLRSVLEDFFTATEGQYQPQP
Tyrosine-protein kinase BTK, sequence (Q06187 whole entry): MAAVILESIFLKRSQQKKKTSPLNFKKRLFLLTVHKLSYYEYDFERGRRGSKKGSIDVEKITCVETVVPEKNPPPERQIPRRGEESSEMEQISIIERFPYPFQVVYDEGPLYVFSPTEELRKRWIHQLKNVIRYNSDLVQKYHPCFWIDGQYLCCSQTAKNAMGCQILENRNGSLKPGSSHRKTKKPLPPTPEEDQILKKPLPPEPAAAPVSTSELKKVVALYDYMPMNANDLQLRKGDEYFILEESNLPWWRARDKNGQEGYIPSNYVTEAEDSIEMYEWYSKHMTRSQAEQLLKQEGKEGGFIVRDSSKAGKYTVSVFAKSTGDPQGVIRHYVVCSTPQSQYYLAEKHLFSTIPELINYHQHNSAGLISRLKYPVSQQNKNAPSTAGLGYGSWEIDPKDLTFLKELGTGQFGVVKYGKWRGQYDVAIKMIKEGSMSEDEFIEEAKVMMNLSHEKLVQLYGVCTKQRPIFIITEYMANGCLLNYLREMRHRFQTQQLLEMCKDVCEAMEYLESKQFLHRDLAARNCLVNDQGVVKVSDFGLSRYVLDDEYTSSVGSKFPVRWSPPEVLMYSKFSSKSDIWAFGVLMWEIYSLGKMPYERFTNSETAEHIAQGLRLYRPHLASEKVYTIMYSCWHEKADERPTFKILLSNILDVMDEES
Rho-associated protein kinase 2 (Homo sapiens), sequence (O75116 whole entry, looked up): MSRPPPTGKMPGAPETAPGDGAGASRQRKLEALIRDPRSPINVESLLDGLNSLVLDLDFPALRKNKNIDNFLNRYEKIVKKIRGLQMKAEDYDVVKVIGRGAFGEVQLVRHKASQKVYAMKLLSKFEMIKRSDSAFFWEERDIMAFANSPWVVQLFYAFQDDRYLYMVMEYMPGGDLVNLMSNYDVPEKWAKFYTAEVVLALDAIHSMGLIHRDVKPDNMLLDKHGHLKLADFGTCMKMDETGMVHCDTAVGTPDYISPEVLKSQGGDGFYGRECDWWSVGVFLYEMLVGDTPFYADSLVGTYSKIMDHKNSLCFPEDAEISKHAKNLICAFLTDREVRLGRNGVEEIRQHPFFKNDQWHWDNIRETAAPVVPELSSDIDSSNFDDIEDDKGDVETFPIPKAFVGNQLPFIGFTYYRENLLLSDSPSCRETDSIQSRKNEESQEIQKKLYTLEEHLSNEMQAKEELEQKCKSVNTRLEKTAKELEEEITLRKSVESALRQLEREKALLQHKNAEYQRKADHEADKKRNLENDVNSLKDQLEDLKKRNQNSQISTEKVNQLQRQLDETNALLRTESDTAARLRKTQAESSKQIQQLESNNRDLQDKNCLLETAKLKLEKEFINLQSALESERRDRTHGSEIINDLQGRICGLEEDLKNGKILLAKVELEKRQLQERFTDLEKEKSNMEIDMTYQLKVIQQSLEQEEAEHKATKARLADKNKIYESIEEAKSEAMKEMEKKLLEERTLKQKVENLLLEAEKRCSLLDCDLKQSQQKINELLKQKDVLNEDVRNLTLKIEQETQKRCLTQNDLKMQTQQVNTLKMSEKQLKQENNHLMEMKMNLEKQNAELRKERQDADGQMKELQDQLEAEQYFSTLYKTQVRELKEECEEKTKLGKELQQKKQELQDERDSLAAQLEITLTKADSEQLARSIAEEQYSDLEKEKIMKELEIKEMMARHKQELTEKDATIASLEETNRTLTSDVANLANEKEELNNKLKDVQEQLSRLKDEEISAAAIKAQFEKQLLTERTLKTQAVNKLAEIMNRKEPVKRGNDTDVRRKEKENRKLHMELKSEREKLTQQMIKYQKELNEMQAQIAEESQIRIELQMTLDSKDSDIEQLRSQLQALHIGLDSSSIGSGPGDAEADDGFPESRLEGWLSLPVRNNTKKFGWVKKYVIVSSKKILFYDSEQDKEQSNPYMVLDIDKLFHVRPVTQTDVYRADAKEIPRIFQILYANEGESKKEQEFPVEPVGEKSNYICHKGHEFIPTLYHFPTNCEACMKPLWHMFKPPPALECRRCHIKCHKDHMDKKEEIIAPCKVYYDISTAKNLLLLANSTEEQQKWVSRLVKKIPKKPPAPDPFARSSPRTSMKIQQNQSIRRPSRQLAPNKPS
Casein kinase I isoform alpha (Homo sapiens), sequence (P48729 2-337 limits assumed): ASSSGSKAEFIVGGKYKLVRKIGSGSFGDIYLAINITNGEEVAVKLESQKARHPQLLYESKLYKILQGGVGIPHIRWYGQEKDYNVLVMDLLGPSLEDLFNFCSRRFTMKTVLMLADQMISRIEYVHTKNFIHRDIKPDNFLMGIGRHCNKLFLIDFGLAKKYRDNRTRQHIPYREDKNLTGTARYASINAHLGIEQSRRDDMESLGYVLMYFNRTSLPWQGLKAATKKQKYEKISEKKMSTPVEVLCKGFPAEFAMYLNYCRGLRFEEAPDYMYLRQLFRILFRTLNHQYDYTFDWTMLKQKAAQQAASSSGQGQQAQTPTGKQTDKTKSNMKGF
Tyrosine-protein kinase Lyn, sequence (P07948 whole entry): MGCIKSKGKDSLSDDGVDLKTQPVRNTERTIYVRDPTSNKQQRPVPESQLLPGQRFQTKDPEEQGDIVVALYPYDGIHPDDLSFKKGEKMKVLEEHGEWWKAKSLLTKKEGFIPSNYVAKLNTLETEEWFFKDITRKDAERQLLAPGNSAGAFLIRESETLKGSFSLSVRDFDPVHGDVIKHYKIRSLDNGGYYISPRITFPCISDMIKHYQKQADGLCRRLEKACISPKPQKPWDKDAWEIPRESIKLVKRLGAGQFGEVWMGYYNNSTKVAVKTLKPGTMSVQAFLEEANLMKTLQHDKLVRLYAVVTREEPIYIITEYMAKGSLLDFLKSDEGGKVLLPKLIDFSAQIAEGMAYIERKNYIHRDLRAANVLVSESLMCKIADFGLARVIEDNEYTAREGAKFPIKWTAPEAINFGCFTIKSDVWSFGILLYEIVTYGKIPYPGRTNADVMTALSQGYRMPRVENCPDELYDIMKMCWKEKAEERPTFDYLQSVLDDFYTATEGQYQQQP
MAP kinase-activated protein kinase 2 (Homo sapiens), sequence (P49137 whole entry, looked up): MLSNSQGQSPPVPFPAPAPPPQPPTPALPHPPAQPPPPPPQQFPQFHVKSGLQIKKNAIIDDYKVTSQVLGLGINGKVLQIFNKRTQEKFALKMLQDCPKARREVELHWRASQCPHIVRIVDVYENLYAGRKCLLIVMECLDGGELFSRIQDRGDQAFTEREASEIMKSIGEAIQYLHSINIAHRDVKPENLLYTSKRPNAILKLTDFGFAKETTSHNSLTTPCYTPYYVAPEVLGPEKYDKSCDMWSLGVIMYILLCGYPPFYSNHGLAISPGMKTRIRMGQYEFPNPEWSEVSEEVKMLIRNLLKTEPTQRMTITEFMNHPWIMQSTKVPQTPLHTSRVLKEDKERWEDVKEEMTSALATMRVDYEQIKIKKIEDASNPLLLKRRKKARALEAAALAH

SMILES: CCCc1cc(N2CCC(N)CC2)nc2sc(C(N)=O)c(N)c12
- Activity [1]: inactive
- Activity [2]: inactive
- Activity [3]: inactive
- concentration at 2 h [4]: 2.8 µM
- Activity [5]: inactive
- IC50 [6]: > 7 µM
- Activity [7]: inactive
- inhibition in vivo at 30 mg/kg [8]: 14%
- IC50 [9]: > 7 µM
- inhibition in vivo at 10 mg/kg [10]: 17%
- IC50 [11]: > 7 µM
- Activity [12]: inactive
- Activity [13]: inactive
- Activity [14]: inactive
- Activity [15]: inactive
- Activity [16]: inactive
- IC50 [17]: > 7 µM
- IC50 [18]: 1.5 µM
- Activity [19]: inactive
- Activity [20]: inactive
- inhibition in vivo at 100 mg/kg [21]: 81%
- Activity [22]: inactive
- concentration at 2 h [23]: 0.02 µM
- IC50 [24]: 1.6 µM
- Activity [25]: inactive
- Activity [26]: inactive
- Activity [27]: inactive
- Activity [28]: inactive
- Activity [29]: inactive
- concentration at 2 h [30]: < 0.01 µM
- IC50 [31]: > 7 µM

SMILES: CCCc1cc(N2CCNCC2)nc2sc(C(N)=O)c(N)c12
- Activity [1]: inactive
- Activity [2]: inactive
- Activity [3]: inactive
- concentration at 2 h [4]: 3.5 µM
- Activity [5]: inactive
- IC50 [6]: > 7 µM
- Activity [7]: inactive
- inhibition in vivo at 30 mg/kg [8]: 35%
- IC50 [9]: > 7 µM
- inhibition in vivo at 10 mg/kg [10]: 12%
- IC50 [11]: > 7 µM
- Activity [12]: inactive
- Activity [13]: inactive
- Activity [14]: inactive
- Activity [15]: inactive
- Activity [16]: inactive
- IC50 [17]: > 7 µM
- IC50 [18]: 7.5 µM
- Activity [19]: inactive
- Activity [20]: inactive
- inhibition in vivo at 100 mg/kg [21]: 74%
- IC50 [32]: > 7 µM
- Activity [22]: inactive
- concentration at 2 h [23]: < 0.01 µM
- IC50 [24]: 3.2 µM
- Activity [25]: inactive
- Activity [26]: inactive
- Activity [27]: inactive
- Activity [28]: inactive
- Activity [29]: inactive
- concentration at 2 h [30]: < 0.01 µM
- IC50 [31]: > 7 µM

SMILES: CCCc1cc(N2CCCC(O)C2)nc2sc(C(N)=O)c(N)c12 (stereo unspecified)
- Activity [1]: inactive
- Activity [2]: inactive
- Activity [3]: inactive
- concentration at 2 h [4]: 22.5 µM
- Activity [5]: inactive
- IC50 [6]: > 7 µM
- Activity [7]: inactive
- inhibition in vivo at 30 mg/kg [8]: 67%
- IC50 [9]: > 7 µM
- inhibition in vivo at 10 mg/kg [10]: 14%
- IC50 [11]: > 7 µM
- Activity [12]: inactive
- Activity [13]: inactive
- Activity [14]: inactive
- Activity [15]: inactive
- Activity [16]: inactive
- IC50 [17]: > 7 µM
- IC50 [18]: 6.1 µM
- Activity [19]: inactive
- Activity [20]: inactive
- inhibition in vivo at 100 mg/kg [21]: 93%
- IC50 [32]: > 7 µM
- Activity [22]: inactive
- concentration at 2 h [23]: 3.1 µM
- IC50 [24]: 13 µM
- Activity [25]: inactive
- Activity [26]: inactive
- Activity [27]: inactive
- Activity [28]: inactive
- Activity [29]: inactive
- concentration at 2 h [30]: 0.17 µM
- IC50 [31]: > 7 µM

SMILES: CCCc1cc(N2CCC(O)CC2)nc2sc(C(N)=O)c(N)c12
- Activity [1]: inactive
- Activity [2]: inactive
- Activity [3]: inactive
- concentration at 2 h [4]: 42.3 µM
- Activity [5]: inactive
- IC50 [6]: > 7 µM
- Activity [7]: inactive
- inhibition in vivo at 30 mg/kg [8]: 94%
- IC50 [9]: > 7 µM
- inhibition in vivo at 10 mg/kg [10]: 42%
- IC50 [11]: > 7 µM
- Activity [12]: inactive
- Activity [13]: inactive
- Activity [14]: inactive
- Activity [15]: inactive
- Activity [16]: inactive
- IC50 [17]: > 7 µM
- IC50 [18]: 5.3 µM
- Activity [19]: inactive
- Activity [20]: inactive
- inhibition in vivo at 100 mg/kg [21]: 98%
- IC50 [32]: > 7 µM
- Activity [22]: inactive
- concentration at 2 h [23]: 15.5 µM
- IC50 [24]: 9.8 µM
- Activity [25]: inactive
- Activity [26]: inactive
- Activity [27]: inactive
- Activity [28]: inactive
- Activity [29]: inactive
- concentration at 2 h [30]: 1.6 µM
